Read-outs that look alike come from different tables or passages of the source.
Legend:
[1] = target: 229E Mpro (Human coronavirus 229E, UniProt P0C6X1); assay: 229E Mpro enzymatic assay (standard methods, SARS-CoV2 Mpro assay given as exemplary); type: biochemical, human coronavirus (HCov) 229E
Procedure, shortened: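 IC50 for 229E Mpro by standard methods; exemplary SARS-CoV-2 protocol used C-His6-tagged Mpro from E. coli, 25 nM enzyme, 25 μM substrate (Km 13.5 μM), in Tris-HCl pH 7.3, NaCl, EDTA, TCEP, 0.1% BSA. Inhibition normalised to no-compound and full-effect controls; four-parameter fit.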

[2] = target: COVID-19 (nCoV-2019, SARS-CoV2) Mpro (Severe acute respiratory syndrome coronavirus 2, UniProt P0DTD1); assay: COVID-19 (nCoV-2019, SARS-CoV2) Mpro enzymatic assay; type: biochemical; details: 25 nM Mpro, 25 μM substrate; read-out: COVID-19 Mpro IC50
[3] = system: HCoV 229E; assay: HCoV 229E cytopathic effect (CPE) assay, CellTiter Glo; type: cell-based, human coronavirus (HCov) 229E; details: protection of virus-induced CPE
Procedure: Example 238: Evaluation of antiviral activity of compounds against human coronavirus (HCov) 229E and OC43 in the cytopathic effect (CPE) assays
Compounds were assayed using standard methods against multiple coronaviral strains, including HCoV 229E and OC43 strains. The antiviral activity of compounds was calculated based on the protection of the virus-induced CPE at each concentration normalized by the virus control.
Cytopathic effect (CPE) was measured by CellTiter Glo following the manufacturer's manual. The antiviral activity of compounds was calculated based on the protection of the virus-induced CPE at each concentration normalized by the virus control.
Cell viability was measured with CellTiter Glo.

[4] = system: HCov OC43; assay: HCoV OC43 cytopathic effect (CPE) assay, CellTiter Glo; type: cell-based, human coronavirus (HCov) OC43
[5] = Betacoronavirus 1, OC43, read-out: OC43 IC50 (uM) MEDIAN, median
[6] = read-out: OC43 IC50 (uM) MEDIAN, median

229E Mpro, sequence (P0C6X1 2966-3267): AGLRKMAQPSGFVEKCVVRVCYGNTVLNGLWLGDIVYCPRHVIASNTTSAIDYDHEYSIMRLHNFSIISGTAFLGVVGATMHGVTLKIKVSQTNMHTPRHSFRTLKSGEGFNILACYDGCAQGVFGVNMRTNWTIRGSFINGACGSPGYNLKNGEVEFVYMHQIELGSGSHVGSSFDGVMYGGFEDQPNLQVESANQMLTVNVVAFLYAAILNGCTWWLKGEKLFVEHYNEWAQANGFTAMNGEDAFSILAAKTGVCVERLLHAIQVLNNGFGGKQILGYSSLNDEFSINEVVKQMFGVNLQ

Row | SMILES | EC50 ([1]; 229E Mpro EC50) | IC50 [2] | EC50 ([3]; unidentified human coronavirus) | other results
1 | CC(C)(C)c1ccc(N(C(=O)[C@H]2C[C@@H](F)CN2C#N)C(C(=O)NC2CCCCC2)c2cccnc2)cc1 (single isomer, unassigned) [Compound 870 Isomer 1] | < 2000 nM | < 2000 nM | < 2000 nM | IC50 [4, 5]: < 2 µM
2 | C[C@@]1(O)C[C@H](C(=O)N(c2ccc(S(F)(F)(F)(F)F)cc2)C(C(=O)NC2CCC(F)(F)CC2)c2cccnc2)N(C#N)C1 (single isomer, unassigned) [Compound 1156 Isomer 1] | < 2000 nM | 2000 to 10000 nM | < 2000 nM | IC50 [4, 5]: 2 to 10 µM
3 | CC1(O)C[C@H](C(=O)N(c2ccc(C(C)(C)C)cc2)C(C(=O)NC2CCCCC2)c2cccnc2)N(C#N)C1 (single isomer, unassigned) [Compound 284 Isomer 2] | < 2000 nM | < 2000 nM | < 2000 nM | IC50 ([4]; read-out: OC43 IC50 (uM) MEDIAN, median, listed as 284 Isomer 2): < 2 µM
4 | N#CN1C[C@H](O)C[C@@H]1C(=O)N(c1ccc(S(F)(F)(F)(F)F)cc1)C(C(=O)NC1CCCCC1)c1cccnc1 (single isomer, unassigned) [Compound 791 Isomer 2] | – | 2000 to 10000 nM | < 2000 nM | EC50 ([1]; read-out: 229E Mpro EC50): < 2000 nM; IC50 [4, 6]: < 2 µM
5 | CC(C)(C)c1ccc(N(C(=O)[C@H]2CCCN2C#N)C(C(=O)NCC2COC2)c2cccnc2)cc1 (single isomer, unassigned) [Compound 419 Isomer 1] | < 2000 nM | < 2000 nM | 2000 to 10000 nM | IC50 [4, 5]: 2 to 10 µM
6 | CN(C)C(=O)CNC(=O)C(c1cccnc1)N(C(=O)[C@H]1CCCN1C#N)c1ccc(C(C)(C)C)cc1 (stereo partly drawn) [Compound 415, (2R)—N-(4-(tert-butyl)phenyl)-1-cyano-N-(2-((2-(dimethylamino)-2-oxoethyl)amino)-2-oxo-1-(pyridin-3-yl)ethyl)pyrrolidine-2-carboxamide] | < 2000 nM | 2000 to 10000 nM | 2000 to 10000 nM | IC50 [4, 5]: 2 to 10 µM
7 | CC(C)(C)c1ccc(N(C(=O)[C@H]2CC(=O)CN2C#N)C(C(=O)NC2CCCCC2)c2cccnc2)cc1 (single isomer, unassigned) [Compound 278 Isomer 2] | – | 2000 to 10000 nM | 2000 to 10000 nM | EC50 ([1]; read-out: 229E Mpro EC50): < 2000 nM; IC50 [4, 6]: 10 to 30 µM
8 | Cn1cnnc1C(C(=O)NC1CCCCC1)N(C(=O)[C@H]1C[C@@H](O)CN1C#N)c1ccc(C(C)(C)C)cc1 (single isomer, unassigned) [659 Isomer 2] | – | 2000 to 10000 nM | – | EC50 ([1]; read-out: 229E Mpro EC50): < 2000 nM; EC50 [3]: 2000 to 10000 nM; IC50 [4, 6]: 2 to 10 µM
9 | CC(C)(C)c1ccc(N(C(=O)[C@H]2C[C@H](O)CN2C#N)C(C(=O)NC2CCCCC2)c2cccnc2)cc1 (single isomer, unassigned) [Compound 255 Isomer 1] | < 2000 nM | 2000 to 10000 nM | – | EC50 ([3]; listed as 255 Isomer 1): 10000 to 30000 nM
10 | CC1(C(=O)N(c2ccc(C(C)(C)C)cc2)C(C(=O)NC2CCCCC2)c2cccnc2)CN(C#N)C1 (centres unmarked) [Compound 128, N-(4-tert-butylphenyl)-1-cyano-N-[2-(cyclohexylamino)-2-oxo-1-(3-pyridyl)ethyl]-3-methyl-azetidine-3-carboxamide] | 2000 to 10000 nM | 10000 to 30000 nM | 2000 to 10000 nM | –
11 | COCCNC(=O)C(c1cccnc1)N(C(=O)[C@H]1C[C@@H](O)CN1C#N)c1ccc(C(C)(C)C)cc1 (single isomer, unassigned) [627 Isomer 1] | < 2000 nM | < 2000 nM | 2000 to 10000 nM | IC50 [4, 6]: < 2 µM
12 | Cc1c[nH]c2cc(N(C(=O)[C@H]3C[C@@H](O)CN3C#N)C(C(=O)NC3CCC(F)(F)CC3)c3cncc(F)c3)ccc12 (single isomer, unassigned) [Compound 747b Isomer 1] | < 2000 nM | < 2000 nM | 2000 to 10000 nM | IC50 [4, 5]: < 2 µM
13 | CN1CCN(C(=O)C(c2cccnc2)N(C(=O)[C@H]2CCCN2C#N)c2ccc(C(C)(C)C)cc2)CC1=O (some centres unmarked) [Compound 969] | < 2000 nM | < 2000 nM | 2000 to 10000 nM | IC50 [4, 5]: 2 to 10 µM
14 | CO[C@H]1C[C@H](C(=O)N(c2ccc(C(C)(C)C)cc2)C(C(=O)NC2CCCCC2)c2cccnc2)N(C#N)C1 (single isomer, unassigned) [Compound 293 Isomer 1] | < 2000 nM | < 2000 nM | < 2000 nM | IC50 ([4]; read-out: OC43 IC50 (uM) MEDIAN, median, listed as 293 Isomer 1): < 2 µM
15 | CC(C)(C)c1ccc(N(C(=O)[C@H]2C[C@H](O)CN2C#N)C(C(=O)NC2CCCCC2)c2cccnc2)cc1 (single isomer, unassigned) [Compound 255 Isomer 2] | – | < 2000 nM | – | EC50 ([1]; read-out: 229E Mpro EC50): < 2000 nM; EC50 ([3]; listed as 255 Isomer 2): < 2000 nM
16 | C[C@H]1CC[C@H](C(=O)N(c2ccc(C(C)(C)C)cc2)C(C(=O)NC2CCCCC2)c2cccnc2)N1C#N (single isomer, unassigned) [Compound 247 Isomer 1] | < 2000 nM | 2000 to 10000 nM | < 2000 nM | –
17 | N#CN1C[C@H](O)C[C@@H]1C(=O)N(c1ccc2c(c1)NCCC2)C(C(=O)NC1CCCCC1)c1cccnc1 (single isomer, unassigned) [Compound 755 Isomer 1] | < 2000 nM | < 2000 nM | < 2000 nM | IC50 [4, 5]: < 2 µM
18 | CC(C)(C)c1ccc(N(C(=O)[C@H]2C[C@@H](O)CN2C#N)C(C(=O)NC2CCCCC2)c2cccnc2)cc1 (single isomer, unassigned) [Compound 254 Isomer 1] | – | 2000 to 10000 nM | – | EC50 ([1]; read-out: 229E Mpro EC50): < 2000 nM; EC50 [3]: 2000 to 10000 nM
19 | CC(C)(C)c1ccc(N(C(=O)[C@H]2CCCN2C#N)C(C(=O)NC2CCCCC2)c2cccnc2)cc1 (single isomer, unassigned) [Compound 1248 Isomer 2] | – | – | – | EC50 [3]: 2000 to 10000 nM
20 | CC(C)(C)c1ccc(N(C(=O)[C@H]2CCC(C)(C)N2C#N)C(C(=O)NC2CCCCC2)c2cccnc2)cc1 (stereo partly drawn) [Compound 262, (2R)—N-(4-tert-butylphenyl)-1-cyano-N-[2-(cyclohexylamino)-2-oxo-1-(3-pyridyl)ethyl]-5,5-dimethyl-pyrrolidine-2-carboxamide] | – | – | < 2000 nM | –
21 | CC(C)(C)c1ccc(N(C(=O)[C@@]2(C)CCCN2C#N)C(C(=O)NC2CCCCC2)c2cccnc2)cc1 (single isomer, unassigned) [Compound 238 Isomer 2] | – | – | – | EC50 [3]: < 2000 nM
22 | CC(C)(C)c1ccc(N(C(=O)[C@H]2CCCN2C#N)C(C(=O)N2CCOCC2)c2cccnc2)cc1 (some centres unmarked) [Compound 959] | – | – | 2000 to 10000 nM | –
23 | CC(C)(C)c1ccc(N(C(=O)[C@H]2C[C@@H](O)CN2C#N)C(C(=O)NC2CCCCC2)c2cccnc2)cc1 (single isomer, unassigned) [Compound 254] | < 2000 nM | < 2000 nM | < 2000 nM | –
24 | CC(C)(C)c1ccc(N(C(=O)[C@@]2(C)CCCN2C#N)C(C(=O)NC2CCCCC2)c2cccnc2)cc1 (single isomer, unassigned) [Compound 238 Isomer 1] | – | – | 2000 to 10000 nM | –
25 | CC(C)(C)c1ccc(N(C(=O)[C@H]2[C@H](F)CCN2C#N)C(C(=O)NC2CCCCC2)c2cccnc2)cc1 (stereo partly drawn) [Compound 910, (2S,3R)—N-(4-tert-butylphenyl)-1-cyano-N-[2-(cyclohexylamino)-2-oxo-1-(3-pyridyl)ethyl]-3-fluoro-pyrrolidine-2-carboxamide] | – | – | < 2000 nM | –
26 | CC(C)(C)c1ccc(N(C(=O)[C@H]2COCCN2C#N)C(C(=O)NC2CCCCC2)c2cccnc2)cc1 (single isomer, unassigned) [Compound 202 Isomer 1] | < 2000 nM | < 2000 nM | < 2000 nM | –
27 | CC(C)(C)c1ccc(N(C(=O)C2c3ccccc3CN2C#N)C(C(=O)NC2CCCCC2)c2cccnc2)cc1 (centres unmarked) [Compound 371] | – | – | < 2000 nM | –

Reference: patent US20220380347A1, “INHIBITORS OF CYSTEINE PROTEASES AND METHODS OF USE THEREOF” (Pardes Biosciences, Inc., priority 2020, published 2022)
